Reference: paper PMC10969742, “A Phase I Study of the Oral Dual-Acting Pan-PI3K/mTOR Inhibitor Bimiralisib in Patients with Advanced Solid Tumors” (Cancers, 2024)
Where two headings read alike, the source gives them in different places.

Assays:
[1] = test system: head and neck squamous cancer with loss of function NOTCH1T1997M mutations; conditions: eight patients, intermittent bimiralisib regimen; cited from earlier work
[2] = test system: patients with advanced solid tumors; type: in vivo
Description: This was a Phase 1, open-label, multi-center, non-randomized, dose escalation study evaluating DLTs, tolerability, PK, and preliminary efficacy of bimiralisib in the treatment of patients with advanced solid tumors for which no standard curative or life-prolonging therapy is available. This study was conducted in the US (MD Anderson Cancer Center, Houston; Mayo Clinic Rochester; Roswell Park Comprehensive Cancer Center, Buffalo; University Hospitals of Cleveland), Spain (Vall Hebron University Hospital), Switzerland (Basel University Hospital), and UK (University College London Hospitals NHS Trust and Oxford Universities NHS Trust).
The primary objective of the study was to determine the MTD of bimiralisib administered according to three different dosing schedules. Bimiralisib was formulated as 20 mg and 80 mg capsules for oral administration. The first dosing schedule to be evaluated was continuous (once daily) dosing over a 21-day cycle. […] Patients enrolled in the continuous schedule and intermittent schedule A received a single lead-in dose, administered on […] prior to the start of the first 21-day treatment cycle, to characterize single-dose pharmacokinetics. Based on the previous first-in-human trial with bimiralisib, together with the expected toxicity profile of PI3K/mTOR inhibitors, the starting dose (dose-level 1) of bimiralisib in Study PQR309-003 was set at 80 mg daily.
Safety was monitored by physical examination, vital signs, weight, electrocardiogram, ECOG performance status, laboratory evaluations (including glucose monitoring), and patient self-reported mood questionnaires, as well as AEs. All AEs were coded with NCI Common Terminology Criteria for Adverse Events (CTCAE) v4.03 [27]. The MTD was defined as the maximum dose level at which ≤1/6 patients have DLTs. A DLT was defined by the occurrence of grade 3 or 4 AE that is possibly, probably, or definitely related to bimiralisib within the first 21 days of treatment. Bimiralisib treatment was interrupted if patients experienced any DLTs. If the patient derived benefit from the treatment as determined by the investigator, treatment could be resumed at a lower dose in agreement with the study sponsor.
Patients were discontinued from trial if they had evidence of clinical, symptomatic, or radiographic disease progression or relapse, unacceptable drug related AEs, non-compliance to the protocol, voluntary withdrawal, or pregnancy. Treatment compliance was established with patient diaries and records of medication used and dosages administered.
Descriptive statistics were used to present the data. Categorical data were summarized in contingency tables presenting frequencies and percentages. Continuous data were summarized using the number of non-missing values (n), mean, standard deviation (SD), median, Q1, Q3, minimum and maximum values, as appropriate. Data were analyzed using SAS. No tests of significance were planned to compare study treatment groups on baseline data. The efficacy and safety analysis set comprised all patients who receive ≥1 dose of bimiralisib.

Nc1cc(C(F)(F)F)c(-c2nc(N3CCOCC3)nc(N3CCOCC3)n2)cn1 [bimiralisib, 5-(4,6-Dimorpholino-1,3,5-triazin-2-yl)-4-(trifluoromethyl)pyridin-2-amine]
Confirmed PR, number of patients [1]: one
SDs, number of patients [1]: three
Any TEAE ([2]; Continuous (n = 21)): 21 (100) n (%)
Any drug-related AE ([2]; Continuous (n = 21)): 21 (100) n (%)
Any drug-related grade ≥ 3 AE ([2]; Continuous (n = 21)): 11 (52.4) n (%)
Any drug-related serious AE ([2]; Continuous (n = 21)): 2 (10) n (%)
Any grade ≥ 3 TEAE ([2]; Continuous (n = 21)): 17 (81) n (%)
Any serious AE ([2]; Continuous (n = 21)): 9 (43) n (%)
Common TEAE: ALT elevation ([2]; Continuous (n = 21)): 1 (4.76) n (%)
Common TEAE: Abdominal pain ([2]; Continuous (n = 21)): 1 (4.76) n (%)
Common TEAE: Anemia ([2]; Continuous (n = 21)): 0 (0) n (%)
Common TEAE: Anxiety ([2]; Continuous (n = 21)): 5 (23.8) n (%)
Common TEAE: Ascites ([2]; Continuous (n = 21)): 0 (0) n (%)
Common TEAE: Asthenia ([2]; Continuous (n = 21)): 6 (28.6) n (%)
Common TEAE: Back pain ([2]; Continuous (n = 21)): 4 (19.1) n (%)
Common TEAE: Cachexia ([2]; Continuous (n = 21)): 4 (19.1) n (%)
Common TEAE: Cough ([2]; Continuous (n = 21)): 2 (9.5) n (%)
Common TEAE: Decreased appetite ([2]; Continuous (n = 21)): 11 (52.4) n (%)
Common TEAE: Dehydration ([2]; Continuous (n = 21)): 6 (28.6) n (%)
Common TEAE: Depression ([2]; Continuous (n = 21)): 5 (23.8) n (%)
Common TEAE: Diarrhea ([2]; Continuous (n = 21)): 10 (47.6) n (%)
Common TEAE: Disturbance attention ([2]; Continuous (n = 21)): 11 (52.4) n (%)
Common TEAE: Dry Mouth ([2]; Continuous (n = 21)): 10 (47.6) n (%)
Common TEAE: Dry skin ([2]; Continuous (n = 21)): 7 (33.3) n (%)
Common TEAE: Dysgeusia ([2]; Continuous (n = 21)): 4 (19.1) n (%)
Common TEAE: Dyspepsia ([2]; Continuous (n = 21)): 1 (4.76) n (%)
Common TEAE: Dyspnea ([2]; Continuous (n = 21)): 4 (19.1) n (%)
Common TEAE: Fatigue ([2]; Continuous (n = 21)): 13 (61.9) n (%)
Common TEAE: Headache ([2]; Continuous (n = 21)): 0 (0) n (%)
Common TEAE: Hyperglycemia ([2]; Continuous (n = 21)): 16 (76.2) n (%)
Common TEAE: Hyperinsulinemia ([2]; Continuous (n = 21)): 7 (33.3) n (%)
Common TEAE: Hyperkalemia ([2]; Continuous (n = 21)): 0 (0) n (%)
Common TEAE: Hyperphosphatasemia ([2]; Continuous (n = 21)): 1 (4.76) n (%)
Common TEAE: Hypokalemia ([2]; Continuous (n = 21)): 6 (28.6) n (%)
Common TEAE: Irritability ([2]; Continuous (n = 21)): 0 (0) n (%)
Common TEAE: Malaise ([2]; Continuous (n = 21)): 4 (19.1) n (%)
Common TEAE: Mucosal Inflammation ([2]; Continuous (n = 21)): 0 (0) n (%)
Common TEAE: Neck pain ([2]; Continuous (n = 21)): 0 (0) n (%)
Common TEAE: Pruritus ([2]; Continuous (n = 21)): 6 (28.6) n (%)
Common TEAE: Rash ([2]; Continuous (n = 21)): 4 (19.1) n (%)
Common TEAE: Tachycardia ([2]; Continuous (n = 21)): 4 (19.1) n (%)
Common TEAE: Upper respiratory tract infection ([2]; Continuous (n = 21)): 1 (4.76) n (%)
Common TEAE: Vomiting ([2]; Continuous (n = 21)): 10 (47.6) n (%)
Common TEAE: Weight decrease ([2]; Continuous (n = 21)): 11 (52.4) n (%)
Grade ≥ 3 TEAE: ALT elevation ([2]; Continuous (n = 21)): 1 (4.8) n (%)
Grade ≥ 3 TEAE: Dehydration ([2]; Continuous (n = 21)): 4 (19) n (%)
Grade ≥ 3 TEAE: Fatigue ([2]; Continuous (n = 21)): 7 (33.3) n (%)
Grade ≥ 3 TEAE: Hyperglycemia ([2]; Continuous (n = 21)): 6 (28.6) n (%)
Patients discontinuing study due to AE ([2]; Continuous (n = 21)): 5 (24.0%) n (%)
Study discontinuation due to AE: Dehydration ([2]; Continuous (n = 21)): 2 (9.5%) n (%)
Study discontinuation due to AE: Ejection Fraction decreased ([2]; Continuous (n = 21)): 1 (4.8%) n (%)
Study discontinuation due to AE: Fatigue ([2]; Continuous (n = 21)): 3 (14.3%) n (%)
Study discontinuation due to AE: Tumor pain ([2]; Continuous (n = 21)): 1 (4.8%) n (%)
Treatment-related death ([2]; Continuous (n = 21)): 0 (0) n (%)
Common TEAE: Upper respiratory tract infection ([2]; Intermittent A, n = 25): 3 (12) n (%)
Study discontinuation due to AE: Urinary Tract Infection ([2]; Intermittent A, n = 25): 1 (4.0%) n (%)
Treatment-related death ([2]; Intermittent A, n = 25): 0 (0) n (%)
Common TEAE: Upper respiratory tract infection ([2]; Intermittent B, n = 24): 1 (4.2) n (%)
Treatment-related death ([2]; Intermittent B, n = 24): 0 (0) n (%)
Common TEAE: Upper respiratory tract infection ([2]; Total n = 70): 5 (7.1) n (%)
Study discontinuation due to AE: Urinary Tract Infection ([2]; Total n = 70): 1 (1.4%) n (%)
Treatment-related death ([2]; Total n = 70): 0 (0) n (%)
Patients who died during the study ([2]; all patients, 19 patients): 27.1%
Grade > 3 TEAE fatigue, frequency ([2]; continuous dosing): 33.3%
Grade > 3 TEAE hyperglycemia, frequency ([2]; continuous dosing): 28.6%
Patients experiencing Grade > 3 TEAEs ([2]; continuous dosing): 81%
Patients who discontinued due to treatment-related fatigue ([2]; continuous dosing): 2 patients
Patients who discontinued the study due to AEs ([2]; continuous dosing): 5 patients
Treatment-emergent AE hyperglycemia, frequency ([2]; continuous schedule): 76.2%
Dose reduction due to TEAEs ([2]; continuous schedule, n = 2): 10%
Dose interruption due to TEAEs ([2]; continuous schedule, n = 11): 52%
Discontinued study treatment: AEs ([2]; human, in vivo): 12.9%
Grade > 3 TEAE hyperglycemia, frequency ([2]; human, in vivo): 12.5%
Patients experiencing one or more TEAEs ([2]; human, in vivo): 99%
Patients reporting one or more serious adverse events (SAEs) ([2]; human, in vivo): 40%
Patients who discontinued due to treatment-related fatigue ([2]; human, in vivo): 1 patients
Patients who discontinued the study due to AEs ([2]; human, in vivo): 3 patients
Patients with TEAEs related to the study drug ([2]; human, in vivo): 91%
SAEs considered related to study drug ([2]; human, in vivo): 6%
Study discontinuation due to AE: Dehydration ([2]; human, in vivo): 2 (2.8%) n (%)
Study discontinuation due to AE: Ejection Fraction decreased ([2]; human, in vivo): 1 (1.4%) n (%)
Study discontinuation due to AE: Tumor pain ([2]; human, in vivo): 1 (1.4%) n (%)
Treatment-emergent AE nausea, frequency ([2]; human, in vivo): 56–62.5%
Patients who discontinued due to AEs considered to be treatment-related ([2]; in vivo): five
SAEs considered related to study drug, number ([2]; in vivo): two
Grade > 3 TEAE fatigue, frequency ([2]; intermittent schedule A): 0%
Grade > 3 TEAE hyperglycemia, frequency ([2]; intermittent schedule A): 12%
Patients experiencing Grade > 3 TEAEs ([2]; intermittent schedule A): 56%
Patients who discontinued the study due to AEs ([2]; intermittent schedule A): 1 patients
SAEs considered related to study drug, number ([2]; intermittent schedule A): zero
Dose reduction due to TEAEs ([2]; intermittent schedule A, n = 0): 0%
Dose interruption due to TEAEs ([2]; intermittent schedule A, n = 9): 36%
Grade > 3 TEAE fatigue, frequency ([2]; intermittent schedule B): 8.3%
SAEs considered related to study drug, number ([2]; intermittent schedule B (diarrhea and hyperglycemia)): two
Dose reduction due to TEAEs ([2]; intermittent schedule B, n = 1): 4%
Dose interruption due to TEAEs ([2]; intermittent schedule B, n = 9): 38%
Deaths due to disease progression ([2]; of 19 deaths during the study): 16 patients
Deaths due to other reasons unrelated to bimiralisib (vessel rupture, sepsis, new small cell carcinoma) ([2]; of 19 deaths during the study): 3 patients
